# Results as given in paper PMC5489766 (Journal of Ginseng Research, 2016).
# Assays:
# [1] = target: T1, HSA (Homo sapiens, UniProt P02768); test: UV-Vis absorption spectra of HSA with G-Rh2; format: binding; conditions: HSA 25 μM, G-Rh2 50 μM, 298K, pH7.4
# [2] = target: T2, BSA (Bos taurus, UniProt P02769); test: UV-Vis absorption spectra of BSA with G-Rh2; format: binding, bovine; conditions: BSA 25 μM, G-Rh2 50 μM, 298K, pH7.4
# [3] = general statement; cited from earlier work
# [4] = target: T2, BSA; test: Fluorescence quenching of BSA by G-Rh2; format: binding, bovine; conditions: for KSV: BSA 1 μM, pH 7.4; for Kd: K (binding constant)
# [5] = target: T1, HSA; test: Fluorescence quenching of HSA by G-Rh2; format: binding; conditions: for KSV: HSA 1 μM, pH 7.4; for Kd: K (binding constant)
# [6] = tested on: HepG2 cells; test: MTT assay, cytotoxic activity with or without serum albumin; format: cell-based; conditions: HepG2, 7.5 μg/mL, 48 h
# [7] = tested on: PARP cleavage in HepG2 cells; test: Immunoblotting of PARP cleavage; format: cell-based; conditions: HepG2, 7.5 μg/mL, BSA or bovine serum, 4 h
# T1 sequence (P02768 25-609): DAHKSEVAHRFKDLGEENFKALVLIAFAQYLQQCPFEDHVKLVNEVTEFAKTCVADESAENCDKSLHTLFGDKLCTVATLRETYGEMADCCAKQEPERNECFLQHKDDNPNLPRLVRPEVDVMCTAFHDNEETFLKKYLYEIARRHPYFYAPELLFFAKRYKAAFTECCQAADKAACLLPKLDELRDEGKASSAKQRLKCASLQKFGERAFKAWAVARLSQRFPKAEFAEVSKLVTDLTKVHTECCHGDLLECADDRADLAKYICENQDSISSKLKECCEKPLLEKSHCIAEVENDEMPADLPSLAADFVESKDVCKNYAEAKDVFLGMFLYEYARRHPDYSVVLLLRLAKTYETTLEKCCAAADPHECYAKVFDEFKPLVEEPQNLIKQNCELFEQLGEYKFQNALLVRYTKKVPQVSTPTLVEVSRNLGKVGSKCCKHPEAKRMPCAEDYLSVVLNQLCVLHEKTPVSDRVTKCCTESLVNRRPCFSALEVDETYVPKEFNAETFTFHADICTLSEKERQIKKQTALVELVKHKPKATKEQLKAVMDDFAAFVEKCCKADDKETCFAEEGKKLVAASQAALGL
# T2 sequence (P02769 25-607): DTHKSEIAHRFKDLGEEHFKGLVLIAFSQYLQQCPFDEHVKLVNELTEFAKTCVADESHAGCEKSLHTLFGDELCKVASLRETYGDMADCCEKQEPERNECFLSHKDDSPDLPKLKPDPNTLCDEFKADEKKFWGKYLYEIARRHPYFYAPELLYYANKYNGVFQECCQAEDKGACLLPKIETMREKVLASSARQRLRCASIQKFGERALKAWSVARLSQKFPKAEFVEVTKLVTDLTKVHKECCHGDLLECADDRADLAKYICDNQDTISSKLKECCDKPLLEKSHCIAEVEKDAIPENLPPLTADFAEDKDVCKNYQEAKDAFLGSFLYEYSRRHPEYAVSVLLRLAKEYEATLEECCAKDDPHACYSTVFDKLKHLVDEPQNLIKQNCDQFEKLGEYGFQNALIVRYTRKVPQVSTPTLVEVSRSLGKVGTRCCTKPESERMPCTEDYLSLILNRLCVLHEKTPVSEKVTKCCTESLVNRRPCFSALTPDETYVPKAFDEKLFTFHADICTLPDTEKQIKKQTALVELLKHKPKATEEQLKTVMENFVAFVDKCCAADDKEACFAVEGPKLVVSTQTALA
smiles,measurement,setting,value
"CC(C)=CCC[C@](C)(O)[C@H]1CC[C@]2(C)[C@@H]1[C@H](O)C[C@@H]1[C@@]3(C)CC[C@H](O[C@@H]4O[C@H](CO)[C@@H](O)[C@H](O)[C@H]4O)C(C)(C)[C@@H]3CC[C@]12C [G-Rh2, Ginsenoside Rh2]",UV-Vis absorption of protein on adding G-Rh2,[1],significantly increased with a slight blue shift of the maximum absorption wavelength
same,UV-Vis absorption of protein on adding G-Rh2,[2],significantly increased with a slight blue shift of the maximum absorption wavelength
"CC(C)=CCC[C@](C)(O)[C@H]1CC[C@]2(C)[C@@H]1[C@H](O)C[C@@H]1[C@@]3(C)CC[C@H](O[C@@H]4O[C@H](CO)[C@@H](O)[C@H](O)[C@H]4O)C(C)(C)[C@@H]3CC[C@]12C [(20S) G-Rh2, Ginsenoside Rh2]",water solubility,[3],very low
same,KSV,[4]; 298 K,7.3470 10^4 M^−1
same,KSV,[4]; 303 K,11.6703 10^4 M^−1
same,KSV,[4]; 308 K,9.2848 10^4 M^−1
same,kq,"[4]; BSA, 298 K",7.3470 10^12 M^−1 s^−1
same,n (number of binding sites),"[4]; BSA, 298 K",1.1329
same,kq,"[4]; BSA, 303 K",11.6703 10^12 M^−1 s^−1
same,n (number of binding sites),"[4]; BSA, 303 K",1.0192
same,kq,"[4]; BSA, 308 K",9.2848 10^12 M^−1 s^−1
same,n (number of binding sites),"[4]; BSA, 308 K",0.9702
same,number of binding site,"[4]; BSA, temperature not stated (abstract)",1
same,Kd,"[4]; BSA, 298 K",2.77 µM
same,Kd,"[4]; BSA, 303 K",7.01 µM
same,Kd,"[4]; BSA, 308 K",15.5 µM
same,KSV,[5]; 298 K,4.9578 10^4 M^−1
same,KSV,[5]; 303 K,6.5117 10^4 M^−1
same,KSV,[5]; 308 K,7.2510 10^4 M^−1
same,kq,"[5]; HSA, 298 K",4.9578 10^12 M^−1 s^−1
same,n (number of binding sites),"[5]; HSA, 298 K",1.2027
same,kq,"[5]; HSA, 303 K",6.5117 10^12 M^−1 s^−1
same,n (number of binding sites),"[5]; HSA, 303 K",1.1449
same,kq,"[5]; HSA, 308 K",7.2510 10^12 M^−1 s^−1
same,n (number of binding sites),"[5]; HSA, 308 K",1.0786
same,number of binding site,"[5]; HSA, temperature not stated, listed as (20S)-Rh2",1
same,Kd,"[5]; HSA, 298 K",1.83 µM
same,Kd,"[5]; HSA, 303 K",2.86 µM
same,Kd,"[5]; HSA, 308 K",5.39 µM
same,Cell viability,"[6]; increased concentration of albumin by adding HSA, BSA or bovine serum",significantly increased in an albumin-dose-dependent manner
same,Cell viability,[6]; without SA,killed almost all cells
same,PARP cleavage,[7]; with 1.68mg/mL albumin by adding HSA,totally inhibited PARP cleavage
same,PARP cleavage,[7]; without HSA,caused the cleavage of poly-adenosine diphosphate-ribose polymerase (PARP)
"CC(C)=CCC[C@](C)(O)[C@H]1CC[C@]2(C)[C@@H]1[C@H](O)C[C@@H]1[C@@]3(C)CC[C@H](O[C@@H]4O[C@H](CO)[C@@H](O)[C@H](O)[C@H]4O)C(C)(C)[C@@H]3CC[C@]12C [(20R) G-Rh2, Ginsenoside Rh2]",KSV,[5]; 298 K,4.5120 10^4 M^−1
same,KSV,[5]; 303 K,6.9016 10^4 M^−1
same,KSV,[5]; 308 K,7.2751 10^4 M^−1
same,kq,"[5]; HSA, 298 K",4.5120 10^12 M^−1 s^−1
same,n (number of binding sites),"[5]; HSA, 298 K",1.131
same,kq,"[5]; HSA, 303 K",6.9016 10^12 M^−1 s^−1
same,n (number of binding sites),"[5]; HSA, 303 K",1.0626
same,kq,"[5]; HSA, 308 K",7.2751 10^12 M^−1 s^−1
same,n (number of binding sites),"[5]; HSA, 308 K",1.0284
same,Kd,"[5]; HSA, 298 K",4.85 µM
same,Kd,"[5]; HSA, 303 K",6.89 µM
same,Kd,"[5]; HSA, 308 K",11.5 µM
